We go through 33 molecules from PubChem BioAssay AID652 (University of Pittsburgh Molecular Library Screening Center, 2007).

Each structure is given as a SMILES string.

The first test has as its target Gag-Pol polyprotein (Human immunodeficiency virus type 1 group M subtype B (isolate HXB2)) (UniProt P04585). Description: concentration-response of HIV-1 RNase H blockers – biochemical, probe assessment, dose response (AID 652). Particulars: HIV-1 RT RNase H enzymatic assay.
One may read the IC50 as the point on the concentration scale where inhibition reaches its midpoint. For `COc1ccc(C2C(C#N)=C(N)N3C(=C2C#N)Sc2ccccc23)cc1` (stereo not given), the IC50 was 3.35 µM.
In the case of `CSc1ccc(C2C(C#N)=C(N)Oc3c2ccc(=O)c2c(C)oc(C)c32)cc1` (stereo not given), the IC50 is 5.81 µM.

Staying with this test, now noted: HIV-1 RT RNase H enzymatic assay, inhibition, at 50 µM, stronger effect = higher value.
As a reminder, the inhibition is the percentage by which the read-out fell short of the control. For `CCOC(=O)CSc1nc2cc(C(=O)NCc3ccco3)ccc2c(=O)n1C1CCCCC1`, the inhibition stood at 89%.
Same read-out and setting: then `CCOC(=O)Cc1csc(-n2sc3ccccc3c2=O)n1`, with 96.4%; and `O=C(O)c1ccc2c(c1)NC(=O)C(N1CCCC1)S2` (stereo not given), with 75.8%; and `CCOc1ccccc1N1CSC2=C(C#N)C(c3c(OC)ccc4ccccc34)CC(=O)N2C1` (stereo not given), with 92%.
Molecule `Cc1ccc(-c2cc(C(F)F)n3ncc(C(=O)NCc4ccco4)c3n2)cc1` showed an inhibition of 93%.
Still for that read-out and setting: as for `C=CCSc1nc2c(c(=O)[nH]c(=O)n2C)n1CC`, the figure is 72.8%.
Still for that read-out and setting: then `O=c1[nH]c(=O)n(-c2ccc(F)cc2)c(O)c1C=Nc1ccccc1N1CCCC1`, with 83.7%; and `COc1ccc2ccccc2c1C1CC(=O)N2CN(C3CCCCC3)CSC2=C1C#N` (stereo not given), with 92.3%.
As to `Cc1nc(C)c(C(=O)Nc2nc3c(C)cccc3s2)o1`, the inhibition was determined as 100%.
On the same count and under the same terms, as for `CCCN(CCC)S(=O)(=O)c1ccc(C(=O)Nc2nnc(-c3cccc(OC)c3)o2)cc1`, the figure is 87.4%; as for `CN(c1ccccc1)c1ccc(/C=c2\s/c(=C(/C#N)C(=O)C(C)(C)C)n(Cc3ccco3)c2=O)cc1`, 92.9%.
On to `CC(C)c1nc2sc3c(SCC(=O)NCc4ccco4)ncnc3c2c2c1CCC2`, for which the inhibition came to 94.1%.
On the same count and under the same terms, then `Cc1cccc(Nc2n[nH]c(=S)s2)c1C`, with 96.9%.
In turn, `c1ccc2c(c1)OCC(c1nnc3sc(-c4ccc5c(c4)OCO5)nn13)O2` (stereo not given) had an inhibition of 97.2%.
Molecule `COc1cc(C(=O)Nc2oc(-c3ccccc3)c(-c3ccccc3)c2C#N)cc(OC)c1OC` registered an inhibition of 94%.
Still for that read-out and setting: as for `c1c2c(cc3sc(N4CCOCC4)nc13)OCO2`, the figure is 78.1%; as for `COc1ccc(C2C(C#N)=C(N)N3C(=C2C#N)Sc2ccccc23)cc1` (stereo not given), 92%; as for `CC(C)(C)c1ccc(-c2nnc3sc(-c4ccncc4)nn23)cc1`, 96.3%.
On the same count and under the same terms, as for `O=c1c2ccccc2[se]n1-c1ccccc1`, the figure is 85.5%; as for `CC(C)c1nnc(NC(=O)c2c(O)c3cccc4c3n(c2=O)CCC4)s1`, 64.9%; as for `Nc1nnc(CSCc2ccc(F)cc2)s1`, 51.7%.
Still for that read-out and setting: then `Cc1ccc(NC(=O)CSc2nnc(-c3ccc(S(=O)(=O)N4CCCC4)cc3)o2)cc1C`, with 88.6%; and `CCOC(=O)c1c(N)sc2c1CCC1C(=O)N(C3CCCCC3)C(=O)C21` (stereo not given), with 96.1%; and `COc1ccccc1-c1nnc2n1N=C(c1ccc(O)c(O)c1)CS2`, with 97%.
Regarding `COC(=O)c1ccccc1NC(=O)c1ccc2c(c1)C(=O)N(Cc1ccco1)C2=O`, the inhibition came out at 93.3%.
Take `CCCc1cc(C(=O)Nc2sc3c(c2C#N)CCC3)no1`: the inhibition worked out at 92.6%.
Regarding `COCCSc1ccccc1C(=O)Nc1cc(C)on1`, the inhibition came to 65.1%.
With `CSc1ccc(C2C(C#N)=C(N)Oc3c2ccc(=O)c2c(C)oc(C)c32)cc1` (stereo not given), the inhibition was found to be 77.4%.
Same read-out and setting: then `N#Cc1c(NC(=O)CN2CCN(S(=O)(=O)c3ccc4c(c3)OCCO4)CC2)sc2c1CCC2`, with 81.9%; and `CCOC(=O)C1=C(C)N=c2s/c(=C3\C(=O)Nc4ccccc43)c(=O)n2C1c1ccc2c(c1)OCO2` (stereo not given), with 83.8%; and `c1cncc(-c2nn3c(Cn4cnc5ccccc54)nnc3s2)c1`, with 85.4%.
`Cc1sc(NC(=O)c2oc3ccccc3c2C)c(C#N)c1C` had an inhibition of 90.3%.
The same measure, in the same setting: then `N#Cc1c(N)nc(SCC(=O)NC2CCCCC2)c(C#N)c1-c1ccc(Cl)cc1`, with 64.2%.
